ChEMBL document CHEMBL4706551, “Rational design of new multitarget histamine H receptor ligands as potential candidates for treatment of Alzheimer's disease” (Eur J Med Chem, 2020)
The source made the active and inactive calls. No cut-off for these calls is given here.

Legend:
MAO-A [1] = target: T1, MAO-A (Homo sapiens, UniProt P21397); experiment: in vitro; settings: probe p-tyramine
T1 sequence (P21397 whole entry): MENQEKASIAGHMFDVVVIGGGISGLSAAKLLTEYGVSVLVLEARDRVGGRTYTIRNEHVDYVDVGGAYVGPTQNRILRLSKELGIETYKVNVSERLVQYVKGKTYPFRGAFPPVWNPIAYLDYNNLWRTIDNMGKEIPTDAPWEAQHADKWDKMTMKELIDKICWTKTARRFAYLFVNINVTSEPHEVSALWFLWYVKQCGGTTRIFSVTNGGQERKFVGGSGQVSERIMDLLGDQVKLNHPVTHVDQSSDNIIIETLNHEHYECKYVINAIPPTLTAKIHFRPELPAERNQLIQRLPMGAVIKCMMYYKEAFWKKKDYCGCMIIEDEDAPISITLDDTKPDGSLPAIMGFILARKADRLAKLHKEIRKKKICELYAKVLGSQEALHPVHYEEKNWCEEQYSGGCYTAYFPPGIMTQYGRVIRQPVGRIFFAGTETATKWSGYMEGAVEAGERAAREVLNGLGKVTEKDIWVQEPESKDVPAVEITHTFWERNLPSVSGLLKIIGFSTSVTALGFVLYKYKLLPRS
Description: Inhibition of recombinant human MAO-A expressed in baculovirus infected BTI cells at 1 uM using p-tyramine as substrate by fluorometric assay relative to control

[2] = target: T2, Amine oxidase [flavin-containing] B (Homo sapiens, UniProt P27338); experiment: biochemical; format: cell-based, BTI
T2 sequence (P27338 whole entry): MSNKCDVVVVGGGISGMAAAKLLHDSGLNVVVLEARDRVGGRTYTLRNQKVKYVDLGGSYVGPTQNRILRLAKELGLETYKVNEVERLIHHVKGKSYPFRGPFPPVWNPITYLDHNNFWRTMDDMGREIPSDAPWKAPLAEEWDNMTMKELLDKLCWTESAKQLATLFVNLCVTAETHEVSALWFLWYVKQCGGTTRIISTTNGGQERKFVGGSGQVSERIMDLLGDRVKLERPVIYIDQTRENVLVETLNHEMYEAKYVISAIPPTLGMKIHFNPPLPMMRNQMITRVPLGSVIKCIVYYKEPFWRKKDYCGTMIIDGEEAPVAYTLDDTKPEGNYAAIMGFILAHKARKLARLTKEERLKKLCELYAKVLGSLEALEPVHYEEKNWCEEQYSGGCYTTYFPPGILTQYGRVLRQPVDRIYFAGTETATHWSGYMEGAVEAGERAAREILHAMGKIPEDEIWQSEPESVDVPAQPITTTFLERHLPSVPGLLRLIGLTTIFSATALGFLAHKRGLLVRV
Description: Inhibition of recombinant human MAO-B expressed in baculovirus infected BTI cells using p-tyramine as substrate by fluorometric assay

MAO-A [3] = target: T1, MAO-A; experiment: Inhibition of recombinant human MAO-A expressed in baculovirus infected BTI cells at 10 uM using p-tyramine as substrate by fluorometric assay relative to control; settings: probe p-tyramine
Acetylcholinesterase [4] = target: T3, Acetylcholinesterase (Electrophorus electricus, UniProt O42275)
T3 sequence (O42275 whole entry): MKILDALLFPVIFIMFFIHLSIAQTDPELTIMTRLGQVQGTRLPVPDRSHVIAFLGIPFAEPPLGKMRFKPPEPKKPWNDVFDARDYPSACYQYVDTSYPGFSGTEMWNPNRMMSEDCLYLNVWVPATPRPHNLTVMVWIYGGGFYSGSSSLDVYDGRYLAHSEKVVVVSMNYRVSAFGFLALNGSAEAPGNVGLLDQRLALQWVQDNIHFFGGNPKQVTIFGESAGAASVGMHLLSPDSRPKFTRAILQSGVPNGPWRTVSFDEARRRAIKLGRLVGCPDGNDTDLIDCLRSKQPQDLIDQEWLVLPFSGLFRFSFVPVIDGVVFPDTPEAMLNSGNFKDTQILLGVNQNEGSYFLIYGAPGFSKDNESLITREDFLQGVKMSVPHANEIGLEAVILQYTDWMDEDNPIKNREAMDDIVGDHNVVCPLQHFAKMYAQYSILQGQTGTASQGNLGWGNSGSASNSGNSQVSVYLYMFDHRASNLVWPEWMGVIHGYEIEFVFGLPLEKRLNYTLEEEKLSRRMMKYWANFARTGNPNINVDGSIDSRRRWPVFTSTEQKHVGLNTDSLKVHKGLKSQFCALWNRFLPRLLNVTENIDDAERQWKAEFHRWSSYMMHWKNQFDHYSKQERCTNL
Description: Inhibition of Electric eel AChE using ATCI as substrate incubated for 5 mins followed by substrate addition and measured after 5 mins by spectrophotometric based Ellman's method

Cholinesterase [5] = target: Cholinesterase (Equus caballus, UniProt P81908)
Cholinesterase (Equus caballus, UniProt P81908), sequence (P81908 whole entry): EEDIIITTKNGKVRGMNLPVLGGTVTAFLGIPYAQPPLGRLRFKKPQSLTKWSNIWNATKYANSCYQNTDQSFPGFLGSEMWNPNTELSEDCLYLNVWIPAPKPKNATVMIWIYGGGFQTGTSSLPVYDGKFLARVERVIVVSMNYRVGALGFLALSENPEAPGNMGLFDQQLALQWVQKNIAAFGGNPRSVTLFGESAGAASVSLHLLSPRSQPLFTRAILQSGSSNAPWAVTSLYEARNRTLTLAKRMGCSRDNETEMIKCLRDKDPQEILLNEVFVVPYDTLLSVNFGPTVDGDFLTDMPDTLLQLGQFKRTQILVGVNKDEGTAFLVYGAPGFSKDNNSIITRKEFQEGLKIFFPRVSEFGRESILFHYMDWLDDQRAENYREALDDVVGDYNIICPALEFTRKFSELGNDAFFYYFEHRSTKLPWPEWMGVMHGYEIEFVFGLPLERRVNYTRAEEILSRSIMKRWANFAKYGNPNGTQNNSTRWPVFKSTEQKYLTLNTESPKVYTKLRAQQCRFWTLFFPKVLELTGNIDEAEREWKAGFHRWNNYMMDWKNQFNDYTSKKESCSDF
Description: Inhibition of equine serum BChE using BTCI as substrate incubated for 5 mins followed by substrate addition and measured after 5 mins by spectrophotometric based Ellman's method

Histamine H3 receptor = Histamine H3 receptor (Homo sapiens, UniProt Q9Y5N1); experiment: biochemical
Histamine H3 receptor, sequence (Q9Y5N1 whole entry): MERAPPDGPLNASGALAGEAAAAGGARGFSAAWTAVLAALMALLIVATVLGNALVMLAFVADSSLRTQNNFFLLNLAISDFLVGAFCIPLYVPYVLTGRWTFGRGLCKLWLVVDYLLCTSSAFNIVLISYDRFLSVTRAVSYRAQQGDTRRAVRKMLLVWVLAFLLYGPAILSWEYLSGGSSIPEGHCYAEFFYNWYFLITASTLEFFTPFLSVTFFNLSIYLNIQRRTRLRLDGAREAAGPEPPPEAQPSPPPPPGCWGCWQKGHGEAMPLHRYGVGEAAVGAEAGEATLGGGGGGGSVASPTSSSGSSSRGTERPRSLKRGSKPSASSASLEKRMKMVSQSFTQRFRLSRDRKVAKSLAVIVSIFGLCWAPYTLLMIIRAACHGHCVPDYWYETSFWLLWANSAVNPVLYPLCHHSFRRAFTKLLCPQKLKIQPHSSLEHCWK
Description: Displacement of [3H]N-alpha-methylhistamine from recombinant human histamine H3 receptor expressed in CHO-K1 cells by microbeta scintillation analysis

Acetylcholinesterase [6] = target: Acetylcholinesterase (Homo sapiens, UniProt P22303); experiment: Inhibition of recombinant human AChE using ATCI as substrate incubated for 5 mins followed by substrate addition and measured after 5 mins by spectrophotometric based Ellman's method
Acetylcholinesterase (Homo sapiens, UniProt P22303), sequence (P22303 whole entry): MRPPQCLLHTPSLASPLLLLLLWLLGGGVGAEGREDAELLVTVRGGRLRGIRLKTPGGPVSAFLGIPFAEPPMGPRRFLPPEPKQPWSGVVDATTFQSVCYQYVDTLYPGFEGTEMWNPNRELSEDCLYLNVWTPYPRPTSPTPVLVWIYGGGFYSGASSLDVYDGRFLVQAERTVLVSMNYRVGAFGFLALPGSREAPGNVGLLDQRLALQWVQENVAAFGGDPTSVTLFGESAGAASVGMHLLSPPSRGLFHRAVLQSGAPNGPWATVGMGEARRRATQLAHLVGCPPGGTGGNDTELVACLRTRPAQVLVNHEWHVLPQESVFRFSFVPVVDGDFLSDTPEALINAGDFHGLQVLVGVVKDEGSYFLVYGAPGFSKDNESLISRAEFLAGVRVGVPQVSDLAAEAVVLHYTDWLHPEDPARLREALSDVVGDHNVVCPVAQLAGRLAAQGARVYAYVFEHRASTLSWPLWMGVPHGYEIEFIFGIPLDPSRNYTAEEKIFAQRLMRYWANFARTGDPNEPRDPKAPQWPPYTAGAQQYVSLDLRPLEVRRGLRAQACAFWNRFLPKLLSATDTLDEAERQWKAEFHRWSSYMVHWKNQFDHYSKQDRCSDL

Mus musculus [7] = experiment: (§1) Analgesic activity in formalin-induced nociception CD-1 mouse model assessed as reduction in pain behaviour by measuring less licking of formalin injected hind paw compound administered intraperitoneally prior to formalin induction and measured during early phase (0 to 5 mins after formalin injection) by formalin test; format: functional; settings: CD-1, ip, time 0-5 min
Mus musculus [8] = experiment: as §1, with “late” for “early”, “(15” for “(0”, “30” for “5”; format: functional; settings: CD-1, ip, time 15-30 min
Rattus norvegicus [9] = experiment: Memory enhancement effect in dizocilpine-induced Wistar (Krf:WI) rat model of amnesia assessed as increase in step through latency at 1.25 to 5 mg/kg, ip measured after 30 to 45 mins by step-through passive avoidance test; format: functional, organism-based; settings: dose 1.25-5 mg/kg, time 30-45 min
Rattus norvegicus [10] = experiment: Memory enhancement effect in dizocilpine-induced Wistar (Krf:WI) rat model of amnesia assessed as decrease in transfer latency time at 1.25 to 5 mg/kg, ip measured after 30 to 45 mins by elevated plus maze test; format: functional, organism-based; settings: dose 1.25-5 mg/kg, time 30-45 min
[11] = target: Acetylcholinesterase (Electrophorus electricus) (UniProt O42275); experiment: Non-competitive inhibition of Electric eel AChE using ATCI as substrate incubated for 5 mins followed by substrate addition and measured after 5 mins by spectrophotometric based Lineweaver-Burk plot analysis; settings: time 10.0 min
Acetylcholinesterase (Electrophorus electricus), sequence (O42275 24-633 limits assumed): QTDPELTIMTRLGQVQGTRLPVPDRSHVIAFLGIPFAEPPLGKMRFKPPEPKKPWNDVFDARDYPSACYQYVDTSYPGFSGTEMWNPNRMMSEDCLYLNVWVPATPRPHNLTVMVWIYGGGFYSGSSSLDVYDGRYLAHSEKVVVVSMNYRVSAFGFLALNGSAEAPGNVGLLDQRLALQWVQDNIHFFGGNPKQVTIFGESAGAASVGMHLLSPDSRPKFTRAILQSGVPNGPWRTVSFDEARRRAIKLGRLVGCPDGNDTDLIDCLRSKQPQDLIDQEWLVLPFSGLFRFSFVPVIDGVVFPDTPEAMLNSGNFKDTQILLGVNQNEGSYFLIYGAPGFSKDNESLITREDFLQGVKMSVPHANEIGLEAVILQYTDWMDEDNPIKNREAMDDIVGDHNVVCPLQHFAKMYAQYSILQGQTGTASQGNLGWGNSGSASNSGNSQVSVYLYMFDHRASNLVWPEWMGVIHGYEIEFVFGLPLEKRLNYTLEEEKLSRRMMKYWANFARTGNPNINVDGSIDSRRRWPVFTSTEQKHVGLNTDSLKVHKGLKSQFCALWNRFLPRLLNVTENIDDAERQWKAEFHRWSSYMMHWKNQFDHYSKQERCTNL

[12] = target: Acetylcholinesterase (Electrophorus electricus) (UniProt O42275); experiment: Non-competitive inhibition of Electric eel AChE using ATCI as substrate incubated for 5 mins followed by substrate addition and measured after 5 mins by spectrophotometric based Cornish-Bowden plot analysis; settings: time 10.0 min
[13] = target: Cholinesterase (Equus caballus) (UniProt P81908); experiment: Non-competitive inhibition of equine serum BChE using BTCI as substrate incubated for 5 mins followed by substrate addition and measured after 5 mins by spectrophotometric based Lineweaver-Burk plot analysis; format: cell-free; settings: time 10.0 min
Cholinesterase (Equus caballus), sequence (P81908 whole entry): as the sequence (P81908 whole entry) above

[14] = target: Cholinesterase (Equus caballus) (UniProt P81908); experiment: Non-competitive inhibition of equine serum BChE using BTCI as substrate incubated for 5 mins followed by substrate addition and measured after 5 mins by spectrophotometric based Cornish-Bowden plot analysis; format: cell-free; settings: time 10.0 min
Cholinesterase [15] = target: Cholinesterase (Homo sapiens, UniProt P06276)
Cholinesterase (Homo sapiens, UniProt P06276), sequence (P06276 whole entry): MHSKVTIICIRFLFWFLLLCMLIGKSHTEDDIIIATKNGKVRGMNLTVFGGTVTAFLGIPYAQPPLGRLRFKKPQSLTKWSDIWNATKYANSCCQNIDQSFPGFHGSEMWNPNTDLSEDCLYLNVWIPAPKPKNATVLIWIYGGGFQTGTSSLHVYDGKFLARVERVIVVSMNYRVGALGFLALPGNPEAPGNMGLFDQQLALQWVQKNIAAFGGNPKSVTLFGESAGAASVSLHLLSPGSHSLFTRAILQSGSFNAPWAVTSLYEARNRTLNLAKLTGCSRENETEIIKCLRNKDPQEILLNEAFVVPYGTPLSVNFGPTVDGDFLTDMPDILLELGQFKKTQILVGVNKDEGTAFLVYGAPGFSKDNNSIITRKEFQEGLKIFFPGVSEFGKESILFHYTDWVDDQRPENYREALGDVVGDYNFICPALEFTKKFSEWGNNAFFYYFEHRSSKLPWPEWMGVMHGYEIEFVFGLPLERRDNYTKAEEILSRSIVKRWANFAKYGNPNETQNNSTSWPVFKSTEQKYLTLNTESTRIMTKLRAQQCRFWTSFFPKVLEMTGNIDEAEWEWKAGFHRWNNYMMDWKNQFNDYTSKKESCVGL
Description: Inhibition of human BuChE by spectrophotometric based Ellman's method

in vitro = settings: PAMPA, pH 7.4
Description: Permeability of compound in PBS buffer assessed as permeability coefficient at pH 7.4 at 200 uM incubated for 5 hrs by PAMPA based LC-MS analysis

Acetylcholinesterase [16] = target: T3, Acetylcholinesterase; experiment: Inhibition of Electric eel AChE using ATCI as substrate preincubated with enzyme for 60 mins followed by substrate addition and measured for 120 secs by spectrophotometric based Ellman's method

| SMILES | inhibition at 1 µM (MAO-A [1]) [%] | IC50 [2] [µM] | inhibition at 10 µM (MAO-A [3]) [%] | IC50 (Acetylcholinesterase [4]) [µM] | IC50 (Cholinesterase [5]) [µM] | Ki (Histamine H3 receptor) [µM] | also measured |
| --- | --- | --- | --- | --- | --- | --- | --- |
| C#CCN(C)CCCOc1ccc(Cl)cc1Cl [CLORGILINE] | 1.8 | – | – | – | – | – | – |
| O=c1c2cc(Cl)ccc2oc2ccc(OCCCCCN3CCCCC3)cc12 | 5 | 0.756 | < 50 | 0.238 | 0.983 | 0.15 | – |
| O=c1c2ccc(Cl)cc2oc2ccc(OCCCCCN3CCCCCC3)cc12 | 2 | 2.11 | < 50 | 0.314 | 1.28 | 0.086 | – |
| O=c1c2ccccc2oc2ccc(OCCCCCN3CCCCC3)cc12 | 6 | 1.5 | < 50 | 0.622 | 2.54 | 0.172 | – |
| CC1CCCN(CCCCCOc2ccc3oc4cc(Cl)ccc4c(=O)c3c2)C1 (stereo unspecified) | 11 | 1.98 | < 50 | 0.353 | 2.83 | 0.056 | – |
| CC1CCN(CCCCCCOc2ccc3oc4ccccc4c(=O)c3c2)CC1 | 6 | 0.856 | < 50 | 0.406 | 0.965 | 0.097 | – |
| O=c1c2ccc(Cl)cc2oc2ccc(OCCCCCCN3CCCCCC3)cc12 | 5 | 0.975 | < 50 | 0.235 | 1.24 | 0.602 | – |
| O=c1c2ccc(Cl)cc2oc2ccc(OCCCCCCN3CCCCC3)cc12 | 8 | 0.946 | < 50 | 0.378 | 1.98 | 0.203 | – |
| CC1CCCN(CCCCCCOc2ccc3oc4ccc(Cl)cc4c(=O)c3c2)C1 (stereo unspecified) | 28 | 0.717 | < 50 | 0.307 | 1.47 | 0.436 | – |
| O=c1c2cc(Cl)ccc2oc2ccc(OCCCCCN3CCCCCC3)cc12 | 12 | 0.897 | < 50 | 0.136 | 0.394 | 0.1 | IC50 (Acetylcholinesterase [6]): 0.12 µM; ED50 (Mus musculus [7]): 27.3 mg/kg; ED50 (Mus musculus [8]): 22.5 mg/kg; Activity (Rattus norvegicus [9]): inactive; Activity (Rattus norvegicus [10]): inactive; inhibition [11]: Active; inhibition [12]: Active; inhibition [13]: Active; inhibition [14]: Active; IC50 (Cholinesterase [15]): 1.59 µM; Papp at 5 h, 200 µM (in vitro): 2.2 ×10⁻⁶ cm/s |
| CC1CCCN(CCCCCCOc2ccc3oc4cc(Cl)ccc4c(=O)c3c2)C1 (stereo unspecified) | 42 | 1.83 | < 50 | 0.384 | 2.04 | 1.1 | – |
| CC1CCCN(CCCCCOc2ccc3oc4ccc(Cl)cc4c(=O)c3c2)C1 (stereo unspecified) | 2 | 0.665 | < 50 | 0.691 | 0.685 | 0.148 | – |
| O=c1c2cc(Cl)ccc2oc2ccc(OCCCCCCN3CCCCC3)cc12 | 8 | 1.82 | < 50 | 0.62 | 0.954 | 0.282 | – |
| Clc1ccc(CCCOCCCN2CCCCC2)cc1 [PITOLISANT] | 9 | – | – | – | – | – | – |
| CC1CCN(CCCCCOc2ccc3oc4ccc(Cl)cc4c(=O)c3c2)CC1 | 5 | 0.673 | < 50 | 0.386 | 1.1 | 0.14 | – |
| CC1CCN(CCCCCCOc2ccc3oc4cc(Cl)ccc4c(=O)c3c2)CC1 | 37 | 1.64 | < 50 | 0.561 | 1.51 | 0.52 | – |
| CC1CCN(CCCCCOc2ccc3oc4cc(Cl)ccc4c(=O)c3c2)CC1 | 22 | 1.54 | < 50 | 0.421 | 1.61 | 0.448 | – |
| CC1CCCN(CCCCCCOc2ccc3oc4ccccc4c(=O)c3c2)C1 (stereo unspecified) | 4 | 1.55 | < 50 | 0.387 | 1.15 | 0.1 | – |
| O=c1c2cc(Cl)ccc2oc2ccc(OCCCCCCN3CCCCCC3)cc12 | 23 | 1.39 | < 50 | 0.27 | 0.545 | 0.238 | – |
| O=c1c2ccccc2oc2ccc(OCCCCCCN3CCCCC3)cc12 | 4 | 0.939 | < 50 | 0.358 | 2 | 1.06 | – |
| O=c1c2ccccc2oc2cc(OCCCCCN3CCCCC3)cc(O)c12 | – | – | – | – | – | – | IC50 (Acetylcholinesterase [16]): 0.46 µM |
| CC1CCCN(CCCCCOc2ccc3oc4ccccc4c(=O)c3c2)C1 (stereo unspecified) | 1 | 4.2 | < 50 | 0.342 | 0.978 | 0.156 | – |
| CC1CCN(CCCCCCOc2ccc3oc4ccc(Cl)cc4c(=O)c3c2)CC1 | 28 | 0.72 | < 50 | 0.525 | 0.899 | 0.465 | – |
| CC1CCN(CCCCCOc2ccc3oc4ccccc4c(=O)c3c2)CC1 | 1 | 1.86 | < 50 | 0.697 | 1.09 | 0.11 | – |
| O=c1c2ccccc2oc2ccc(OCCCCCCN3CCCCCC3)cc12 | 3 | 0.385 | < 50 | 0.308 | 0.605 | 0.496 | – |
